The values that follow come from patent US4604234A, “Protein having cell growth stimulating action, composition thereof and method for producing the same” (priority 1983, dated 1986).

In test [1] the test system is BHK-21 cells. The test can be described thus: Inhibitory effects of steroids on BHK-21 cells. It is filed as cell-based, hamster. The conditions noted are these: for activity at 0.5 µg/mL / activity at 1 µg/mL / activity at 5 µg/mL / activity at 25 µg/mL / activity at 50 µg/mL: Mesocricetus auratus, read-out: % of control cell numbers.
The test system of test [2] is BHK-21 cells. The test can be described thus: Effects of WHS on BHK-21 cells in the presence of steroids. The class given is cell-based, hamster. The conditions noted are these: steroid 50 μg/ml alone.
Another test has as its system mouse fibroblasts. The conditions noted are these: with protoplasmic vacuolation; cited from earlier work.
For test [3], the system named is human cutaneous fibroblasts. The conditions noted are these: listed in descending order of inhibition; cited from earlier work.
In test [4] the test system is BHK-21 cells (hamster renal fibroblasts). The test can be described thus: Growth of BHK-21 cells, time course. It is filed as cell-based.
The test system of a further test is epidermal cell. The conditions noted are these: cited from earlier work.

Read-outs that look alike come from different tables or passages of the source.

Turning to `CC1(C)O[C@@H]2C[C@H]3[C@@H]4C[C@H](F)C5=CC(=O)C=C[C@]5(C)[C@@]4(F)[C@@H](O)C[C@]3(C)[C@]2(C(=O)CO)O1` [Fluocinolone acetanide, fluocinolone acetonide], the cell numbers is recorded as 0.15 × 10^5 cells/dish in the test with BHK-21 cells [1] (0.5 μg/ml, 1 day); 1.16 × 10^5 cells/dish in the test with BHK-21 cells [1] (0.5 μg/ml, 3 days); 1.66 × 10^5 cells/dish with BHK-21 cells [1] (0.5 μg/ml, 5 days); 0.15 × 10^5 cells/dish with BHK-21 cells [1] (1.0 μg/ml, 1 day); 1.04 × 10^5 cells/dish in the test with BHK-21 cells [1] (1.0 μg/ml, 3 days); 1.72 × 10^5 cells/dish in the test with BHK-21 cells [1] (1.0 μg/ml, 5 days). Besides, the cell numbers with BHK-21 cells [1] (5.0 μg/ml, 1 day) is reported as 0.15 × 10^5 cells/dish; with BHK-21 cells [1] (5.0 μg/ml, 3 days) it was 1.02 × 10^5 cells/dish; in the test with BHK-21 cells [1] (5.0 μg/ml, 5 days), 1.66 × 10^5 cells/dish; in the test with BHK-21 cells [1] (25.0 μg/ml, 1 day), 0.15 × 10^5 cells/dish; in the test on BHK-21 cells [1] (25.0 μg/ml, 3 days) it was 0.88 × 10^5 cells/dish; in the test with BHK-21 cells [1] (25.0 μg/ml, 5 days) it was 1.39 × 10^5 cells/dish. Moreover, the cell numbers with BHK-21 cells [1] (50.0 μg/ml, 1 day) was 0.12 × 10^5 cells/dish; in the test on BHK-21 cells [1] (50.0 μg/ml, 3 days), 0.71 × 10^5 cells/dish; with BHK-21 cells [1] (50.0 μg/ml, 5 days) it was 1.12 × 10^5 cells/dish; with BHK-21 cells [2] (3rd day), 0.97 × 10^5 cells/dish; in the test on BHK-21 cells [2] (5th day), 1.22 × 10^5 cells/dish. Also, the activity at 0.5 µg/mL was 107% in the test on BHK-21 cells [1] (BHK-21, 24 h, 0.5 μg/ml, 1 day); 86.6% in the test on BHK-21 cells [1] (BHK-21, 72 h, 0.5 μg/ml, 3 days); 75.8% in the test with BHK-21 cells [1] (BHK-21, 120 h, 0.5 μg/ml, 5 days). In addition, the activity at 1 µg/mL in the test with BHK-21 cells [1] (BHK-21, 24 h, 1.0 μg/ml, 1 day) worked out at 107%; with BHK-21 cells [1] (BHK-21, 72 h, 1.0 μg/ml, 3 days), 77.6%; with BHK-21 cells [1] (BHK-21, 120 h, 1.0 μg/ml, 5 days), 78.5%. Also, the activity at 5 µg/mL in the test on BHK-21 cells [1] (BHK-21, 24 h, 5.0 μg/ml, 1 day) amounted to 107%; with BHK-21 cells [1] (BHK-21, 72 h, 5.0 μg/ml, 3 days) it was 76.1%; with BHK-21 cells [1] (BHK-21, 120 h, 5.0 μg/ml, 5 days), 75.8%. Besides, the activity at 25 µg/mL with BHK-21 cells [1] (BHK-21, 24 h, 25.0 μg/ml, 1 day) turned out to be 107%; in the test with BHK-21 cells [1] (BHK-21, 72 h, 25.0 μg/ml, 3 days), 65.7%; in the test with BHK-21 cells [1] (BHK-21, 120 h, 25.0 μg/ml, 5 days) it was 63.5%. Further, the activity at 50 µg/mL is 85.7% in the test on BHK-21 cells [1] (BHK-21, 24 h, 50.0 μg/ml, 1 day); 53% with BHK-21 cells [1] (BHK-21, 72 h, 50.0 μg/ml, 3 days); 51.1% with BHK-21 cells [1] (BHK-21, 120 h, 50.0 μg/ml, 5 days). Further, the “growth of incubated mouse fibroblasts” value with mouse fibroblasts was “inhibited growth”.
Turning to `C[C@]12CCC(=O)C=C1CC[C@@H]1[C@@H]2[C@@H](O)C[C@@]2(C)[C@H]1CC[C@]2(O)C(=O)CO` [Hydrocortisone, hydrocortisone], the cell numbers in the test on BHK-21 cells [1] (0.5 μg/ml, 2 days) was 13.0 × 10^5 cells/dish; in the test with BHK-21 cells [1] (0.5 μg/ml, 4 days), 24.0 × 10^5 cells/dish; with BHK-21 cells [1] (0.5 μg/ml, 6 days), 25.6 × 10^5 cells/dish; in the test on BHK-21 cells [1] (1.0 μg/ml, 2 days) it was 12.5 × 10^5 cells/dish; in the test with BHK-21 cells [1] (1.0 μg/ml, 4 days) it was 23.8 × 10^5 cells/dish; in the test with BHK-21 cells [1] (1.0 μg/ml, 6 days), 25.1 × 10^5 cells/dish. Moreover, the cell numbers is listed as 12.0 × 10^5 cells/dish with BHK-21 cells [1] (5.0 μg/ml, 2 days); 21.9 × 10^5 cells/dish in the test with BHK-21 cells [1] (5.0 μg/ml, 4 days); 25.2 × 10^5 cells/dish with BHK-21 cells [1] (5.0 μg/ml, 6 days); 9.3 × 10^5 cells/dish in the test on BHK-21 cells [1] (25.0 μg/ml, 2 days); 17.1 × 10^5 cells/dish in the test on BHK-21 cells [1] (25.0 μg/ml, 4 days); 22.6 × 10^5 cells/dish in the test on BHK-21 cells [1] (25.0 μg/ml, 6 days). Besides, the cell numbers in the test on BHK-21 cells [1] (50.0 μg/ml, 2 days) is 8.2 × 10^5 cells/dish; in the test with BHK-21 cells [1] (50.0 μg/ml, 4 days), 10.8 × 10^5 cells/dish; in the test on BHK-21 cells [1] (50.0 μg/ml, 6 days), 10.0 × 10^5 cells/dish; in the test with BHK-21 cells [2] (2nd day), 8.2 × 10^5 cells/dish; with BHK-21 cells [2] (4th day) it was 12.6 × 10^5 cells/dish. Further, the activity at 0.5 µg/mL in the test with BHK-21 cells [1] (BHK-21, 48 h, 0.5 μg/ml, 2 days) amounted to 105%; in the test with BHK-21 cells [1] (BHK-21, 96 h, 0.5 μg/ml, 4 days) it was 92.7%; with BHK-21 cells [1] (BHK-21, 144 h, 0.5 μg/ml, 6 days) it was 98.5%. In addition, the activity at 1 µg/mL was 101% in the test with BHK-21 cells [1] (BHK-21, 48 h, 1.0 μg/ml, 2 days); 91.7% with BHK-21 cells [1] (BHK-21, 96 h, 1.0 μg/ml, 4 days); 96.5% in the test on BHK-21 cells [1] (BHK-21, 144 h, 1.0 μg/ml, 6 days). In addition, the activity at 5 µg/mL in the test on BHK-21 cells [1] (BHK-21, 48 h, 5.0 μg/ml, 2 days) is 96.8%; in the test with BHK-21 cells [1] (BHK-21, 96 h, 5.0 μg/ml, 4 days), 84.6%; with BHK-21 cells [1] (BHK-21, 144 h, 5.0 μg/ml, 6 days), 96.9%. In addition, the activity at 25 µg/mL with BHK-21 cells [1] (BHK-21, 48 h, 25.0 μg/ml, 2 days) was 75%; in the test on BHK-21 cells [1] (BHK-21, 96 h, 25.0 μg/ml, 4 days), 66%; in the test with BHK-21 cells [1] (BHK-21, 144 h, 25.0 μg/ml, 6 days) it was 86.9%. Besides, the activity at 50 µg/mL was found to be 66.1% in the test on BHK-21 cells [1] (BHK-21, 48 h, 50.0 μg/ml, 2 days); 41.7% with BHK-21 cells [1] (BHK-21, 96 h, 50.0 μg/ml, 4 days); 40% in the test with BHK-21 cells [1] (BHK-21, 144 h, 50.0 μg/ml, 6 days). Also, in test [3], the “growth inhibition of incubated human cutaneous fibroblasts” value is “inhibited”.
Take `C[C@]12CCC(=O)C=C1CC[C@@H]1[C@@H]2[C@@H](O)C[C@@]2(C)[C@H]1CC[C@]2(O)C(=O)CO` [cortisol]: in the test with mouse fibroblasts, the “growth of incubated mouse fibroblasts” value is “inhibited growth”.
For the compound EGF: epidermal growth factor, the “saturation density of the cells” value in test [4] is on record as “increased the saturation density of the cells”.
For the compound PDGF, in test [4] (Eagle's MEM containing 10% calf serum, 37° C.), the “saturation density of the cells” value is given as “increased the saturation density of the cells”.
Regarding cholera toxin, the “stimulating activity on epidermal cell growth” value in the test with epidermal cell is listed as “marked stimulating activity”.
